One assay deals with T1, human CB1R (Homo sapiens, UniProt P21554).
T1 construct: expressed in transfected cells
Kind of assay: Competition radioligand binding assay, [3H]-CP55940, human CB1R. On the procedure:
CB1R competition binding experiments were carried out by employing cell membranes obtained from a stable CHO-hCB1 cell line. Cell membranes were prepared by washing the cells twice with phosphate buffered saline (PBS) and scraped from the plate in lysis buffer (5 mM Tris-HCl, 2 mM EDTA, pH = 7.4). Cell suspension was homogenized and centrifuged at 1000× g for 10 min at 4 °C. Supernatant was isolated and centrifuged at 48,000× g for 1 h at 4 °C. The membrane’s pellet was suspended in a storage buffer (50 mM Tris-HCl, pH = 7.4). The protein concentration of the cell membrane suspension was 4292 µg/mL.
Radioligand binding assays were performed in a polypropylene 96-well plate containing 20 μg of cell membranes, 1.25 nM [^3H]-CP55940 (101 Ci/mmol, 1 mCi/mL, Perkin Elmer NET1051250UC), and the compounds under study. Non-specific binding was determined in the presence of Surinabant 10 μM. The reaction mixture (Vt: 250 μL/well) was incubated at 30 °C for 60 min, 200 μL was transferred to a GF/B 96-well plate (Millipore, Madrid, Spain) and treated with binding buffer (50 mM Tris-HCl, 5 mM MgCl2, 1 mM EDTA, 0.5% BSA. pH: 7.4); afterward, it was filtered and washed four times with 250 μL wash buffer (50 mM Tris-HCl, 5 mM MgCl2, 1 mM EDTA, 0.5% BSA. pH: 7.4), before its measurement in a microplate beta scintillation counter (Microbeta Trilux, PerkinElmer, Madrid, Spain).

Another assay concerns the target T2, human CB2R (Homo sapiens, UniProt P34972).
T2 construct: expressed in transfected cells
The assay is described as follows: Competition radioligand binding assay, [3H]-CP55940, human CB2R. On the procedure:
CB2R competition binding experiments were carried out by employing cell membranes obtained from a stable HEK-hCB2 cell line. Cell membranes were prepared by washing the cells twice in PBS and scraped from the plate in PBS. Cell suspension was centrifuged at 1500× g for 3 min at 4 °C. Cell pellet was suspended in lysis buffer (15 mM Tris-HCl, 2 mM MgCl2, 0.3 mM EDTA, 1 mM EGTA, pH = 7.5), homogenized, and centrifuged at 40,000× g for 25 min at 4 °C. Pellet was suspended in lysis buffer and centrifuged at 40,000× g for 1 h at 4 °C. The membrane’s pellet was suspended in storage buffer (7.5 mM Tris-HCl, 12.5 mM MgCl2, 0.3 mM EDTA, 1 mM EGTA, 250 mM sucrose, pH = 7.5). The protein concentration of the cell membrane suspension was 4781 µg/mL.
Radioligand binding assays were performed in a polypropylene 96-well plate containing 30 μg of membranes, […] (101 Ci/mmol, 1 mCi/mL, Perkin Elmer NET1051250UC), and the compounds under study. Non-specific binding was determined in the presence of GW405833 10 μM (Sigma G1421). The reaction mixture (Vt: 250 μL/well) was incubated at 30 °C for 90 min, 200 μL was transferred to GF/C 96-well plate (Millipore, Madrid, Spain), pre-treated with 0.5% of PEI, and treated with binding buffer (50mM Tris-HCl, 5mM MgCl2, 2.5 mM EGTA, 0.1% BSA. pH: 7.4); afterward, it was filtered and washed four times with 250 μL wash buffer (50mM Tris-HCl, 5mM MgCl2, 2.5 mM EGTA, 1% BSA. pH: 7.4), before its measurement in a microplate beta scintillation counter (Microbeta Trilux, PerkinElmer, Madrid, Spain).

For the next assay, the target named is T3, SNAP-CB2R (Homo sapiens, UniProt P34972).
T3 construct: host or cells: HEK-293 cells, transient transfection (lipofectamine 2000), living adherent cells
T3 sequence (P34972 whole entry): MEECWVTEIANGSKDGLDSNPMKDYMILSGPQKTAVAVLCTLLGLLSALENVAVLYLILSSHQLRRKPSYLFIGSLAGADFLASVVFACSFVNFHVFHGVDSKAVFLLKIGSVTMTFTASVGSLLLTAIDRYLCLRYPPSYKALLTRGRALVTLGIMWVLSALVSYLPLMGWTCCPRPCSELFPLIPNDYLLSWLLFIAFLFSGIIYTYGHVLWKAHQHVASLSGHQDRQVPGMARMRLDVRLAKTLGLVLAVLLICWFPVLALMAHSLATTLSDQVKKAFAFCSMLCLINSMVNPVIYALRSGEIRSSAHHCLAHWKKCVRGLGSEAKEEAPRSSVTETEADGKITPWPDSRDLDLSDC
The assay is described as follows: Tag-lite competition binding assay with CELT-335, living cells expressing SNAP-CB2R.

Another assay concerns the target T4, SNAP-CB1R (Homo sapiens, UniProt P21554).
T4 construct: expressed in transfected cells; host or cells: HEK-293T cells, transient transfection (PEI), living cells
Kind of assay: cell-based. The class given is binding.

In the next assay the target is hCB2R. Conditions: literature value ref 32; cited from earlier work.
A further assay concerns the target CB1 receptor. Conditions: literature value ref 31; cited from earlier work.
The mark [1] stands for this setting: 100 nM CELT-335, test compound 0-10 μM, mean ± SEM, read-out: pKi CB1 Tag-Lite Binding (CELT-335) (converted).

Where two headings read alike, the source gives them in different places.

T2 sequence (P34972 whole entry): as above
T4 sequence (P21554 whole entry): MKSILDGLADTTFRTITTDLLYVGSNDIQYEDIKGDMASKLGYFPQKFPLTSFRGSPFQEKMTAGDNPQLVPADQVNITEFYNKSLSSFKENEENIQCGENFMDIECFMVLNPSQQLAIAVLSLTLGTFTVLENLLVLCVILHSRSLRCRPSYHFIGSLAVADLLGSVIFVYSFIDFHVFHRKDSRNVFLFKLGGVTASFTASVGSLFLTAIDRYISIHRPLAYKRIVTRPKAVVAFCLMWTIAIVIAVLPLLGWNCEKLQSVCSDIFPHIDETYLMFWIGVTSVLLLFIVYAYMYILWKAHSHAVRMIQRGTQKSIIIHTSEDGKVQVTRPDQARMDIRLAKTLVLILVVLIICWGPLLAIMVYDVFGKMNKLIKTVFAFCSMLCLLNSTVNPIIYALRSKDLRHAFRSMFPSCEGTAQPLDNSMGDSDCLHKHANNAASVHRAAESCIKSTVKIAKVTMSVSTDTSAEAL
T1 sequence (P21554 whole entry): as above

`CC(C)C(NC(=O)c1cn(Cc2ccc(F)cc2)c2ccccc12)C(N)=O` (stereo not drawn) [AB-FUBICA]: the Ki on human CB1R is 0.0036 µM; on human CB2R it was 0.0288 µM; at SNAP-CB2R it was 0.0363 µM.

Consider `COC(=O)[C@@H](NC(=O)c1cn(Cc2ccc(F)cc2)c2ccccc12)C(C)C` [AMB-FUBICA], for which the Ki at human CB1R was 0.0479 µM; at human CB2R it was 0.02 µM; at SNAP-CB2R, 0.0219 µM; on SNAP-CB1R (setting [1]) it was 0.117 µM.

In the case of `CCCCCn1cc(C(=O)NC23CC4CC(CC(C4)C2)C3)c(=O)c2ccccc21` [Adamantyl-quinolone], the values for the Ki at human CB1R and at SNAP-CB1R were 0.049 µM and 0.0794 µM, respectively. The “pKi CB2 Tag-Lite Binding (CELT-335)” value at SNAP-CB2R amounted to 8.29 ± 0.11. On hCB2R, the “pKi CB2 Radioligand Binding” value is 7.78 [32].

Consider `COC(=O)C(NC(=O)c1cn(CC2CCCCC2)c2ccccc12)C(C)(C)C` (stereo not drawn) [MDMB-CHMICA], for which, at CB1 receptor, the “pKi CB1 Radioligand Binding” value was 9.38 [31]. Moreover, the results for the Ki on SNAP-CB2R and on SNAP-CB1R (setting [1]) were 0.00234 µM and 0.00813 µM, respectively.

Consider `Cc1c(C(=O)NCc2cccnc2)nn(-c2ccc(Cl)cc2Cl)c1-c1ccc(Cl)cc1` [MJ15], for which the Ki is 0.0631 µM on human CB1R (displacement of specific [3H]-CP55940 binding, mean ± SEM, read-out: pKi CB1 Radioligand Binding (converted)); 0.692 µM on human CB2R (displacement of specific [3H]-CP55940 binding, mean ± SEM, read-out: pKi CB2 Radioligand Binding (converted)); 0.324 µM on SNAP-CB2R; 0.0363 µM on SNAP-CB1R (setting [1]).

(Values after article PMC10745346, “A Robust and Efficient FRET-Based Assay for Cannabinoid Receptor Ligands Discovery” (Molecules, 2023).)
